{"source": "patent US9364555B2", "about": "“Pederin and psymberin agents” (priority 2011, dated 2016)", "key": {"[1]": {"system": "HCT116 colon cancer cells", "experiment": "cell viability study, MTS assay with a three day incubation period", "type": "cell-based", "protocol": "The potency of the above-described compounds was measured in cell viability studies using HCT116 colon cancer cells with an MTS assay with a three day incubation period.\nThe second generation analogs were evaluated for their ability to inhibit HCT116 cell growth through the same protocol that was used to evaluate the initial set of compounds."}, "[2]": {"system": "HCT116 colon cancer cells", "conditions": "literature value, read-out: GI50 value in the literature for this cell line; cited from earlier work"}, "[3]": {"system": "p53 knockout variant of the HCT116 cell line", "experiment": "test against p53 knockout variant of the HCT116 cell line", "type": "cell-based", "text": "The identity of the alkoxy group in the acyl aminal subunit appears to exert little influence over the biological activity, but the presence of the alkoxy group enhances potency by at least one order of magnitude (entries 1-4 vs. entry 5). […] This has also been observed in psymberin analogs that lack a substituent at that position (Huang et al., Org. Lett. 2009, 11, 867). […] The approximately one order of magnitude potency reduction of the des-methylene analog (entry 7), though consistent with results from the Nakata group, was somewhat surprising based on the minimal structural perturbation that this change effects on the hydrogen bond donors and acceptors in the molecule (Fukui et al., Bioorg. Med. Chem. Lett. 1997, 7, 2081)."}, "[4]": {"conditions": "HCT116 cells, MTS assay, three day incubation, Table 1, natural products and analogs"}, "[5]": {"conditions": "HCT116 cell growth, same protocol as Table 1, Table 2, second generation analogs"}, "[6]": {"conditions": "Homo sapiens, HCT-116, HCT116 cell growth, same protocol as Table 1, Table 2, second generation analogs"}}, "note": "Like-named read-outs stand apart in the source and are kept apart here.", "data": [{"compound": "10-trifluoroethoxy pederin [Compound 36c]", "values": [{"measurement": "GI50", "setting": "[1]; [4]", "value": "0.55 ± 0.024", "unit": "nM"}]}, {"compound": "C=C(C)CC(OC)[C@H](O)C(=O)N[C@@H](OC)[C@@H]1C[C@@H](O)C(C)(C)[C@@H](C[C@H](O)[C@@H](C)[C@H]2Cc3c(C)c(O)cc(O)c3C(=O)O2)O1", "note": "(stereo partly drawn) [Compound 2, psymberin]", "values": [{"measurement": "GI50", "setting": "[1]; [4]", "value": "0.052 ± 0.02", "unit": "nM"}, {"measurement": "GI50", "setting": "[2]", "value": 0.16, "unit": "nM"}]}, {"compound": "C=C1CC(OC)(C(O)C(=O)NC(OCC)C2CC(O)C(C)(C)C(CC(COC)OC)O2)OC(C)C1C", "note": "(stereo not drawn) [Compound 36b, 10-ethoxy pederin]", "values": [{"measurement": "GI50", "setting": "[1]; [4]", "value": "0.34 ± 0.08", "unit": "nM"}]}, {"compound": "4-desmethylene-10-desmethoxy 13-O-methylpederin [Compound 49]", "values": [{"measurement": "GI50", "setting": "[1]; [5]", "value": "79 ± 8", "unit": "nM"}]}, {"compound": "C=C1C[C@](OC)([C@H](O)C(=O)N[C@@H](OC)[C@@H]2C[C@@H](OC)C(C)(C)[C@@H](C[C@@H](COC)OC)O2)O[C@H](C)[C@@H]1C", "note": "[Compound 41, 13-O-methyl pederin]", "values": [{"measurement": "GI50", "setting": "[1]; [4]", "value": "0.084 ± 0.01", "unit": "nM"}, {"measurement": "activity against p53 knockout variant of HCT116 compared with HCT116", "setting": "[3]", "value": "essentially identical activity"}]}, {"compound": "COC[C@H](C[C@H]1O[C@H]([C@@H](C)NC(=O)[C@@H](O)[C@@]2(OC)CC[C@@H](C)[C@@H](C)O2)C[C@@H](OC)C1(C)C)OC", "note": "[Compound 52, 4-desmethylene-10-(R)-methyl 13-O-methylpederin]", "values": [{"measurement": "GI50", "setting": "[1]; [6]", "value": "> 9000", "unit": "nM"}]}, {"compound": "8-desmethoxy psymberin [Compound 47]", "values": [{"measurement": "GI50", "setting": "[1]; [5]", "value": "0.83 ± 0.1", "unit": "nM"}]}, {"compound": "10-desmethoxy pederin [Compound 36e]", "values": [{"measurement": "GI50", "setting": "[1]; [4]", "value": "7.7 ± 0.24", "unit": "nM"}]}, {"compound": "C=C1C[C@](OC)([C@H](O)C(=O)N[C@@H](OC)[C@@H]2C[C@@H](O)C(C)(C)[C@@H](C[C@@H](COC)OC)O2)O[C@H](C)[C@@H]1C", "note": "[Compound 1, pederin]", "values": [{"measurement": "GI50", "setting": "[1]; [4]", "value": "0.6 ± 0.1", "unit": "nM"}, {"measurement": "activity against p53 knockout variant of HCT116 compared with HCT116", "setting": "[3]", "value": "essentially identical activity"}]}, {"compound": "10-desmethoxy pedestatin [Compound 48]", "values": [{"measurement": "GI50", "setting": "[1]; [5]", "value": "0.068 ± 0.02", "unit": "nM"}]}, {"compound": "C4-desmethylene pederin [Compound 40]", "values": [{"measurement": "GI50", "setting": "[1]; [4]", "value": "6.5 ± 0.8", "unit": "nM"}, {"measurement": "activity against p53 knockout variant of HCT116 compared with HCT116", "setting": "[3]", "value": "essentially identical activity"}]}, {"compound": "pedestatin [Compound 46]", "values": [{"measurement": "GI50", "setting": "[1]; [4]", "value": "0.046 ± 0.03", "unit": "nM"}]}, {"compound": "10-dimthoxybenzyloxy pederin [Compound 36d]", "values": [{"measurement": "GI50", "setting": "[1]; [4]", "value": "0.32 ± 0.09", "unit": "nM"}]}, {"compound": "13-OTBS pederin", "values": [{"measurement": "GI50", "setting": "[1]; [4]", "value": "3.1 ± 0.1", "unit": "nM"}]}, {"compound": "COC[C@H](C[C@H]1O[C@H]([C@H](C)NC(=O)[C@@H](O)[C@@]2(OC)CC[C@@H](C)[C@@H](C)O2)C[C@@H](OC)C1(C)C)OC", "note": "[Compound 51, 4-desmethylene-10-(S)-methyl 13-O-methylpederin]", "values": [{"measurement": "GI50", "setting": "[1]; [6]", "value": "42 ± 5", "unit": "nM"}]}, {"compound": "C=C1C[C@](OC)([C@H](O)C(=O)N/C=C2/C[C@@H](O)C(C)(C)[C@@H](C[C@@H](COC)OC)O2)O[C@H](C)[C@@H]1C", "note": "[Compound 37, pederin enamide]", "values": [{"measurement": "GI50", "setting": "[1]; Homo sapiens, HCT-116, 72 h, HCT116 cells, MTS assay, three day incubation, Table 1, natural products and analogs", "value": "27 ± 0.88", "unit": "nM"}, {"measurement": "activity against p53 knockout variant of HCT116 compared with HCT116", "setting": "[3]", "value": "essentially identical activity"}]}]}
